In patent US20110281852A1 (priority 2010, published 2011):

Tests used:
[1] = in vitro; conditions: mouse, 3T3-L1 cells during proliferation
Description: Culture medium was removed at 24, 48 and 72 hrs and MTT (0.5 mg/ml in pure DMEM, 50 μl/well) was added.

[2] = system: GATA-2; assay: Immunoblot, GATA-2 protein in 3T3-L1 cells; assay type: cell-based, mouse; conditions: DM + 1, 2, 4, 8 μM, 8 days, p<0.05
Description: Immunoblot Analysis: GATA-2 and GATA-3 protein expression were assessed by Western blot. […] The cells were washed twice with PBS, lysed in a lysis buffer (HEPES-Tx-PI buffer: 10 mM HEPES, 5 mM EDTA, 350 mM Sucrose, 1 ug/ml leupeptin, 1 ug/ml pepstatin, 1% Triton-X, 1 mM PMSF, diluted in water), processed with a 25G needle and centrifuged at 10,000 rpm for 5 min. Protein concentration was determined using the […] according to the Pierce Protein Assay Protocol. Total protein (50 μg) was used for GATA-2 and GATA-3 analysis and was separated by electrophoresis using BioRad Electrophoretic System (60 V for 1 hour followed by 90 V for 5 hours). The protein was then transferred to nitrocellulose membranes at 35 V overnight. The membrane was blocked for 1 hour at room temperature in 5% nonfat milk in Tris-buffered saline (TBS), then washed with Tween-20-TBS (TTBS, 0.1% Tween-20) three times (15 min, 5 min, 5 min), followed by incubation with primary antibodies of GATA-2 (dilution 1:500), GATA-3 (dilution 1:500), β-Actin (dilution 1:1000) at room temperature for 2 hours. The membrane was rinsed three times (15 min, 5 min, 5 min), then incubated at room temperature for 1 hour with Horseradish peroxidase-conjugated second antibody (1:10,000). The membrane was then incubated in ECL reagent for 1 minute. Protein was visualized using UVP image analysis system.

[3] = system: SREBP-1; assay: Real-time RT-PCR, SREBP-1 mRNA in 3T3-L1; assay type: cell-based, mouse; conditions: 8 days
Description: (§1) Realtime RT-PCR: Real-time reverse transcriptase polymerase chain reaction (RT-PCR) analysis was used to measure mRNA expression of genes SREBP-1, PPARγ, C/EBPα, low density lipoprotein receptor (LDLR), Adiponectin, and fatty acid synthase (FAS) under the control of β-actin. Briefly, total RNA was isolated from 3T3-L1 cells following treatment for 8 days with Trizol reagent (Invitrogen, Carlsbad, Calif., USA) according to the manufacturer's instruction. RNA was quantified using absorption of light at 260 nm, and sample purity was checked by OD 260 nm/280 nm. 0.8 μg of total RNA from each sample was used for reverse transcription reaction using the TaqMan Reverse Transcription Reagents (Applied Biosystems, Foster City, Calif., USA) according to the manufacturers' instructions. PCR was done using the SYBR green Master Mix (Applied Biosystems, Foster City, Calif., USA) according to the manufacturers' instructions. The temperature cycling conditions of amplification were as follows: an initial step of denaturation at 95° C. for 10 min, 40 cycles of denaturation at 95° C. for 30 s, annealing at 55° C. for 30 s, and elongation at 72° C. for 30 s. Realtime RT-PCR was performed using Mx3000P Realtime Thermocyclers (Statagene, La Jolla, Calif., USA). The relative mRNA levels of these genes were calculated by 2-delta delta CT method and normalized with control groups.

[4] = system: Adiponectin; assay: Real-time RT-PCR, Adiponectin mRNA in 3T3-L1; assay type: cell-based, mouse; conditions: 8 days
Description: as §1

[5] = system: fatty acid synthase (FAS); assay: Real-time RT-PCR, FAS mRNA in 3T3-L1; assay type: cell-based, mouse; conditions: 8 μM berberine + 50 μM risperidone, 8 days
Description: as §1

[6] = system: C/EBPα; assay: Immunoblot, C/EBPα protein in epididymal fat of FD mice; assay type: in vivo, mouse; conditions: berberine treatment
Description: RNA and protein purification and quantification from epididymal fat tissues: RNA and protein was isolated from 60 mg of epididymal fat tissues with Trizol (Invitrogen, Carlsbad, Calif., USA) following the protocol recommended by the manufacturers. RNA was dissolved in pure water and quantified at 260/280 nm, and sample integrity was checked by 1.5% agarose gel electrophoresis. Protein concentration was determined using the Micro BCA Protein Assay Kit (Fisher Scientific, Pittsburgh, Pa., USA) according to the manufacturer's instructions.
Immunoblot Analysis: Protein expression of GATA-2, GATA-3, PPARγ and C/EBPα in the control of β-actin was assessed by Western Blot. Protein samples from the same group were homogenized as previously reported (Hu and Davies, Phytomedicine (2009) 16:864-873). Protein (25 μg) was separated by polyacrylamide gel electrophoresis using the BioRad Electrophoretic System (60 V for 1 h followed by 90 V for 5 h). The proteins were then transferred to nitrocellulose membranes at 35 V overnight. […]

[7] = system: SERT (serotonin transporter); assay: Real-Time RT-PCR, SERT mRNA in RN46A cells; assay type: cell-based
Description: Realtime RT-PCR: Real-Time reverse transcriptase polymerase chain reaction (RT-PCR) analysis was used to measure mRNA expression of SERT under the control of β-actin. Briefly, total RNA was isolated from RN46A cells following treatment with Trizol reagent (Invitrogen, Carlsbad, Calif., USA) according to the manufacturer's instruction. […] 0.8 μg of total RNA from each sample was used for reverse transcription reaction using the TaqMan Reverse Transcription Reagents (Applied Biosystems, Foster City, Calif., USA) following the manufacturer's instructions. PCR was done using the SYBR green Master Mix (Applied Biosystems, Foster City, Calif., USA) following the manufacturer's instructions. The temperature cycling conditions of amplification were as follows: an initial step of denaturation at 95° C. for 10 min, 40 cycles of denaturation at 95° C. for 30 s, annealing at 55° C. for 30 s, and elongation at 72° C. for 30 s. Real-Time RT-PCR was performed using Mx3000P Real-Time Thermocyclers (Statagene, La Jolla, Calif., USA).

[8] = 8 μM berberine + 15 μM clozapine
[9] = 8 μM berberine + 50 μM risperidone

Work on `COc1ccc2cc3[n+](cc2c1OC)CCc1cc2c(cc1-3)OCO2.[Cl-]` [berberine, Berberine (Chloride Form)] yielded a cytotoxicity at 1 day, 8 μM [1] of 13.2%, a cytotoxicity at 2 days, 8 μM [1] of 13.8% and a cytotoxicity at 3 days, 8 μM [1] of 18.6%. The GATA-2 protein expression [2] was “increase”, the “decrease of SREBP-1 mRNA expression vs clozapine treated group” value [3, 8] was 68.9% and the “decrease of SREBP-1 mRNA expression vs risperidone treated group” value [3, 9] was 80.9%. For the same compound, the “decrease of adiponectin mRNA expression vs clozapine treated group” value [4, 8] was 96.3%, the “decrease of Adiponectin mRNA expression vs risperidone treated group” value [4, 9] was 98.2% and the “decrease of FAS mRNA expression vs risperidone treated group” value [5] was 85.5%. The “quantitative protein expression of CEBP-α” value [6] was “did not appear to be significantly changed”.
In the case of evodiamine, the “increase of SERT mRNA expression vs control group” value ([7]; 2 μM evodiamine) is reported as 2.5 fold and the “increase of SERT mRNA expression vs control group” value ([7]; 4 μM evodiamine) is reported as 1.7 fold.
